The source of these data is US10941379B2, “Microbial system for biosynthesis of natural and engineered products coupled to in situ extraction in supercritical CO2” (Massachusetts Institute of Technology, priority 2016, dated 2021).

Test [1] relates to B. megaterium SR7. Particulars: LB, aerobic. As for the experimental part:
To help guide optimization of growth conditions for strain SR7, physiological tests were conducted under aerobic conditions. To determine tolerance for pH, salinity and bicarbonate, high throughput culturing was done in 96 well plates and scored for growth by OD600 using a microplate reader (BioTek Synergy 2; BioTek; Winooski, Vt.). 200 uL LB solutions/well were inoculated in triplicate with 10^4 spores/ml (based on SR7 spore stock filter counts) and incubated on a plate rocker at 37° C. with unamended positive and cell-free negative LB controls. Tests for pH tolerance (pH 2-10) were conducted in LB medium amended with HCl or NaOH. The effect of salinity and bicarbonate on growth was determined by adding NaCl (1-10%) and NaHCO3 (0.1-0.5M), respectively, to LB media. Optimal SR7 growth temperature was tested by inoculating 10^4 spores/ml in 5 ml of LB in triplicate at temperatures of 9-55° C. Cultures and cell-free negative controls were incubated without shaking, with subsamples taken for periodic OD600 measurements. SR7 antibiotic sensitivity was determined by supplementing 5 ml LB with ampicillin (5-50 μg/ml), chloramphenicol (3.5-35 μg/ml), kanamycin (5-50 μg/ml), spectinomycin (10-100 μg/ml), streptomycin (10-100 μg/ml), or tetracycline (1.5-15 μg/ml).

The test system of test [2] is B. megaterium SR7 spores. Description: Delayed germination induction in PBS under 1 atm CO2 (bulk fluorescence, OD600). In kind it is cell-based, Bacillus megaterium. Particulars: 9.5 hours after delayed induction in PBS; for OD600 Fold Decrease: OD decrease indicative of germination. As for the experimental part:
Sub-sample bulk fluorescence (Syto9®) was measured by microplate reader (BioTek Synergy 2; 485/20 excitation, 528/20 emission) and OD600 was measured by microplate reader. OD should decrease in germinated cells (the index of refraction decreases due to hydration upon spore coat degradation) while bulk fluorescence should increase as the nucleic acid stain progressively penetrates and permeates the cell (Magge et al., 2009). To test for germination after a delayed inducer spike rather than at the moment of inoculation, B. megaterium SR7 spores loaded at OD600 0.01 were incubated overnight in 30 ml of PBS, passaged into PBS amended with L-alanine (25-250 mM) or L-leucine (10-25 mM) and then assayed for germination by bulk fluorescence and OD600 during incubation.

Test [3] deals with B. megaterium SR7 spores. Nature of the test: Spore germination and growth under scCO2 with germination inducers. It is filed as cell-based, Bacillus megaterium. Conditions: pooled incubations, 18-20 days; unamended reactors 36%. As for the experimental part: SR7 growth outcomes were investigated under scCO2 headspace (90-100 atm; 37° C.) while shaking at 250 rpm. SR7 spores were inoculated at starting concentrations of ˜3×10^4 spores/ml (unless otherwise specified) in either 50 mM K2HPO4-buffered LB (P-LB) or M9+ media (Table 1). Experiments assaying the effect of germination induction included 100 mM L-alanine and 10 mM L-leucine media amendments and heat treatment upon reactor pressurization (70° C. for 10 minutes). Incubations were conducted in 316 stainless steel vessels and gradually pressurized to supercritical conditions using a CO2/He cylinder, as previously described. SR7 germination was verified by the identification of vegetative cell morphologies using fluorescence microscopy of Syto9-stained cultures. Growth was defined by an increase of at least 10-fold growth in cell counts relative to t0.
In order to ascertain whether L-alanine, L-leucine, and heat treatment induce germination under scCO2 headspace, three replicate experiments were conducted comparing growth for SR7 spores when loaded in media P-LB, P-LBL, P-LBAL, or P-LBA±heat treatment (Table 1; Table 2). Reactors were depressurized and scored for germination and growth by fluorescence microscopy, as previously described.
Cell densities of P-LB and L-PBA incubations from the three experiments (Table 3; Incubations A-C) were subjected to statistical analysis to establish the significance of 100 mM L-alanine on spore growth outcomes. A non-parametric Wilcoxon/Kruskal-Wallis Test was performed on the dataset (JMP® Pro v.12; SAS Cary, N.C.) where growth outcome (growth/no growth) and cell density fold change (relative to t0) were dependent variables and incubation time and inducer presence/absence (±100 mM L-alanine) were independent variables. […]

In test [4] the test system is B. megaterium DSM319. Description: Biolog GenIII sole carbon source growth. In kind it is cell-based, Bacillus megaterium. Conditions: no metals added; Table 10. As to the method: (§1) Plates were incubated at 37° C. on a plate shaker at 200 rpm and assayed for growth using NADH-dependent colorimetric changes measured by OD490 on a microplate reader (BioTek Synergy 2; BioTek; Winooski, Vt.).

For test [5], the system named is B. megaterium QM B1551. Nature of the test: Biolog GenIII sole carbon source growth. Conditions: no metals added; Table 10. In kind it is cell-based, Bacillus megaterium. As to the method:
as §1

Test [6] concerns B. megaterium SR7. Description: Biolog GenIII sole carbon source growth. In kind it is cell-based, Bacillus megaterium. Particulars: for Growth on Biolog sole carbon source, SR7: no metals added, Table 10; for Growth in carbon source Biolog plate, +Metals: trace metals-amended plate; for Growth in carbon source Biolog plate, +Metals / Growth in carbon source Biolog plate, I / Growth in carbon source Biolog plate, II: Table 11; for Growth in carbon source Biolog plate, I: unamended plate trial I; for Growth in carbon source Biolog plate, II: unamended plate trial II. As for the experimental part: as §1

The mark [7] stands for this setting: assayed 0, 100, 300, 500 mM over 36 h.
Setting [8] is: assayed 0, 5, 10, 50, 80, 100 g/L over 36 h.

Consider `O=C(O)O` [NaHCO3], for which, in test [1] (setting [7]), the “Optimal for SR7 growth, NaHCO3” value is 0 to 100 mM and the “Range of viable SR7 growth, NaHCO3” value lay within 0 to 300 mM.
Turning to `CC(C)C[C@H](N)C(=O)O` [L-leucine], in test [2] (10 mM inducer), the “Fluorescence Fold Increase” value is on record as 2.0 fold and the “OD600 Fold Decrease” value is reported as 1.2 fold. Further, in test [2] (25 mM inducer), the “Fluorescence Fold Increase” value is reported as 2.0 fold and the “OD600 Fold Decrease” value is on record as 1.2 fold. Moreover, the “Growth frequency of cultures under scCO2” value in test [3] was determined as 7.7%.
As for `O=C(O)[C@H](O)[C@@H](O)[C@H](O)[C@H](O)CO` [D-Gluconic Acid], the “Growth on Biolog sole carbon source, DSM319” value in test [4] is given as “+++”. The “Growth on Biolog sole carbon source, QM B1551” value in test [5] is “+”. In test [6], the “Growth on Biolog sole carbon source, SR7” value is listed as “+”; the “Growth in carbon source Biolog plate, +Metals” value is listed as “+++”; the “Growth in carbon source Biolog plate, I” value is given as “+”; the “Growth in carbon source Biolog plate, II” value is on record as “+”.
With `O=C(O)[C@@H](O)[C@@H](O)[C@H](O)[C@@H](O)C(=O)O` [D-Saccharic Acid], the “Growth on Biolog sole carbon source, DSM319” value in test [4] is recorded as “−”. Moreover, in test [5], the “Growth on Biolog sole carbon source, QM B1551” value is reported as “+++”. In test [6], the “Growth on Biolog sole carbon source, SR7” value was “−”; the “Growth in carbon source Biolog plate, +Metals” value was “−”; the “Growth in carbon source Biolog plate, I” value was “−”; the “Growth in carbon source Biolog plate, II” value is given as “+”.
As to `OC[C@H]1O[C@H](O)[C@H](O)[C@@H](O)[C@@H]1O` [α-D-Glucose], the “Growth on Biolog sole carbon source, DSM319” value in test [4] is recorded as “+++”. Moreover, the “Growth on Biolog sole carbon source, QM B1551” value in test [5] is given as “+”. In addition, in test [6], the “Growth on Biolog sole carbon source, SR7” value is listed as “+”; the “Growth in carbon source Biolog plate, +Metals” value is “+++”; the “Growth in carbon source Biolog plate, I” value was “+”; the “Growth in carbon source Biolog plate, II” value is listed as “+”.
Take `OC[C@@H](O)[C@@H](O)[C@H](O)[C@H](O)CO` [D-Mannitol]: in test [4], the “Growth on Biolog sole carbon source, DSM319” value was “+++”. In addition, the “Growth on Biolog sole carbon source, QM B1551” value in test [5] is recorded as “+”. Moreover, in test [6], the “Growth on Biolog sole carbon source, SR7” value is “+”; the “Growth in carbon source Biolog plate, +Metals” value was “+”; the “Growth in carbon source Biolog plate, I” value was “+”; the “Growth in carbon source Biolog plate, II” value is recorded as “+”.
Consider `C[C@H](O)C(=O)O` [L-Lactic Acid], for which the “Growth on Biolog sole carbon source, DSM319” value in test [4] is “+++”. The “Growth on Biolog sole carbon source, QM B1551” value in test [5] is recorded as “+++”. Also, in test [6], the “Growth on Biolog sole carbon source, SR7” value is reported as “+”; the “Growth in carbon source Biolog plate, +Metals” value is on record as “+”; the “Growth in carbon source Biolog plate, I” value is “+”; the “Growth in carbon source Biolog plate, II” value was “+”.
For `CC(=O)N[C@H]1C(O)O[C@H](CO)[C@@H](O)[C@@H]1O` (stereo partly drawn) [N-Acetyl-D-Glucosamine], the “Growth on Biolog sole carbon source, DSM319” value in test [4] was “+++”. Also, the “Growth on Biolog sole carbon source, QM B1551” value in test [5] is on record as “+”. In addition, in test [6], the “Growth on Biolog sole carbon source, SR7” value was “+”; the “Growth in carbon source Biolog plate, I” value is given as “+”; the “Growth in carbon source Biolog plate, II” value is reported as “+”.
For the compound `O=C(O)CC(Br)C(=O)O` (stereo not shown) [Bromo-Succinic Acid], in test [4], the “Growth on Biolog sole carbon source, DSM319” value is “+++”. Also, the “Growth on Biolog sole carbon source, QM B1551” value in test [5] is given as “+”. In test [6], the “Growth on Biolog sole carbon source, SR7” value is “+”; the “Growth in carbon source Biolog plate, +Metals” value is recorded as “+”; the “Growth in carbon source Biolog plate, I” value is on record as “+”; the “Growth in carbon source Biolog plate, II” value is listed as “+”.
For the compound `[Cl-].[Na+]` [NaCl], in test [1] (setting [8]), the “Optimal for SR7 growth, [NaCl]” value was 0 to 10 g/L and the “Range of viable SR7 growth, [NaCl]” value was in the range of 0 to 100 g/L.
As to `O=C(O)C[C@H](O)C(=O)O` [L-Malic Acid], the “Growth on Biolog sole carbon source, DSM319” value in test [4] is “+++”. The “Growth on Biolog sole carbon source, QM B1551” value in test [5] was “+++”. Also, in test [6], the “Growth on Biolog sole carbon source, SR7” value is on record as “+++”; the “Growth in carbon source Biolog plate, +Metals” value is given as “+”; the “Growth in carbon source Biolog plate, II” value is recorded as “+++”.
Consider `N[C@@H](CC(=O)O)C(=O)O` [L-Aspartic Acid], for which the “Growth on Biolog sole carbon source, DSM319” value in test [4] was “+++”. In addition, the “Growth on Biolog sole carbon source, QM B1551” value in test [5] is on record as “+”. In addition, in test [6], the “Growth on Biolog sole carbon source, SR7” value is listed as “+”; the “Growth in carbon source Biolog plate, +Metals” value is on record as “+++”; the “Growth in carbon source Biolog plate, I” value is reported as “+”; the “Growth in carbon source Biolog plate, II” value is reported as “+”.
As to `N[C@@H](CCC(=O)O)C(=O)O` [L-Glutamic Acid], the “Growth on Biolog sole carbon source, DSM319” value in test [4] is “+++”. Also, the “Growth on Biolog sole carbon source, QM B1551” value in test [5] is “+++”. Besides, in test [6], the “Growth on Biolog sole carbon source, SR7” value is “+”; the “Growth in carbon source Biolog plate, +Metals” value is given as “+++”; the “Growth in carbon source Biolog plate, I” value was “+”; the “Growth in carbon source Biolog plate, II” value is “+”.
